According to the NIST ThermoML archive (doi:10.1021/je060271a):

Details: 303.15 K, Liquid, Vibrating tube method

CCCCCCCC(=O)OCC(COC(=O)CCCCCCC)(COC(=O)CCCCCCC)COC(=O)CCCCCCC [pentaerythritol tetraoctanoate]
Details	mass density [kg/m3]
17535 kPa	966
17571 kPa	965.8
17601 kPa	966
17637 kPa	966
17674 kPa	966.1
17705 kPa	966
17742 kPa	966.1
17773 kPa	966.1
17810 kPa	966
17848 kPa	966.2
17879 kPa	966.2
17916 kPa	966.1
17948 kPa	966.1
17985 kPa	966.2
18024 kPa	966.2
18056 kPa	966
18095 kPa	966.2
18133 kPa	966.3
18165 kPa	966.2
18205 kPa	966.3
18238 kPa	966.4
18278 kPa	966.3
18311 kPa	966.4
18351 kPa	966.5
18391 kPa	966.5
18424 kPa	966.4
18465 kPa	966.4
18499 kPa	966.5
18540 kPa	966.5
18573 kPa	966.5
18614 kPa	966.5
18656 kPa	966.5
18690 kPa	966.5
18732 kPa	966.6
18768 kPa	966.6
18810 kPa	966.7
18851 kPa	966.7
18886 kPa	966.8
18930 kPa	966.6
18966 kPa	966.7
19009 kPa	966.9
19045 kPa	966.8
19087 kPa	966.7
19131 kPa	966.9
19168 kPa	966.8
19211 kPa	966.9
19248 kPa	967
19292 kPa	967.1
19338 kPa	966.9
19375 kPa	966.9
19420 kPa	966.9
19458 kPa	967
19502 kPa	967
19548 kPa	967.1
19586 kPa	967.1
19632 kPa	967.1
19677 kPa	967.1
19715 kPa	967.1
19762 kPa	967.2
19802 kPa	967.2
19851 kPa	967.3
19890 kPa	967.2
19938 kPa	967.3
19986 kPa	967.3
20025 kPa	967.4
20074 kPa	967.3
20115 kPa	967.4
20163 kPa	967.4
20203 kPa	967.4
20252 kPa	967.5
20302 kPa	967.4
20344 kPa	967.4
20397 kPa	967.5
20440 kPa	967.5
20489 kPa	967.5
20532 kPa	967.5
20582 kPa	967.6
20632 kPa	967.7
20674 kPa	967.7
20724 kPa	967.7
20766 kPa	967.8
20817 kPa	967.8
20872 kPa	967.7
20948 kPa	968
21030 kPa	968
21112 kPa	968
21144 kPa	968
21170 kPa	968
21194 kPa	968
21222 kPa	968
21244 kPa	967.9
21272 kPa	968
21299 kPa	968
21322 kPa	968.1
21350 kPa	968
21374 kPa	968
21402 kPa	968.1
21425 kPa	968.1
21454 kPa	968.2
21478 kPa	968.1
21506 kPa	968.1
21533 kPa	968.2
21557 kPa	968.2
21585 kPa	968.2
21610 kPa	968.2
21636 kPa	968.2
21666 kPa	968.2
21690 kPa	968.2
21721 kPa	968.4
21743 kPa	968.2
21775 kPa	968.2
21798 kPa	968.3
21827 kPa	968.3
21850 kPa	968.4
21880 kPa	968.3
21909 kPa	968.3
21933 kPa	968.4
21964 kPa	968.4
21988 kPa	968.3
22017 kPa	968.4
22049 kPa	968.5
22071 kPa	968.4
22101 kPa	968.5
22126 kPa	968.5
22158 kPa	968.6
22186 kPa	968.5
22214 kPa	968.5
22241 kPa	968.7
22266 kPa	968.6
22297 kPa	968.6
22328 kPa	968.6
22355 kPa	968.7
22385 kPa	968.7
22411 kPa	968.7
22441 kPa	968.7
22473 kPa	968.8
22499 kPa	968.6
22531 kPa	968.8
22556 kPa	968.7
22588 kPa	968.8
22614 kPa	968.8
22647 kPa	968.8
22677 kPa	968.8
22703 kPa	968.9
22736 kPa	968.8
22762 kPa	968.9
22795 kPa	968.9
22823 kPa	968.9
22855 kPa	969
22884 kPa	969
22910 kPa	968.9
22944 kPa	968.9
22976 kPa	969
23001 kPa	969
23032 kPa	968.9
23066 kPa	969.2
23092 kPa	969
23125 kPa	969.1
23153 kPa	968.9
23185 kPa	969.2
23220 kPa	969.1
23246 kPa	969.2
23276 kPa	969.1
23312 kPa	969.2
23339 kPa	969.2
23371 kPa	969.2
23405 kPa	969.2
23434 kPa	969.3
23465 kPa	969.3
23500 kPa	969.2
23527 kPa	969.3
23561 kPa	969.3
23590 kPa	969.3
23626 kPa	969.4
23656 kPa	969.3
23690 kPa	969.4
23721 kPa	969.3
23753 kPa	969.5
23781 kPa	969.4
23817 kPa	969.5
23853 kPa	969.5
23880 kPa	969.5
23917 kPa	969.4
23950 kPa	969.5
23980 kPa	969.6
24016 kPa	969.5
24045 kPa	969.7
24080 kPa	969.5
24110 kPa	969.7
24146 kPa	969.6
24184 kPa	969.6
24212 kPa	969.6
24254 kPa	969.8
24280 kPa	969.7
24317 kPa	969.7
24348 kPa	969.8
24384 kPa	969.8
24420 kPa	969.7
24450 kPa	969.8
24488 kPa	969.9
24520 kPa	969.9
24557 kPa	969.8
24589 kPa	969.8
24627 kPa	969.8
24658 kPa	969.9
24697 kPa	969.9
24728 kPa	969.8
24766 kPa	970
24804 kPa	969.9
24836 kPa	969.9
24874 kPa	970.1
24906 kPa	970.1
24945 kPa	970.2
24978 kPa	970.1
25016 kPa	970.1
25048 kPa	970.2
25087 kPa	970.1
25126 kPa	970.1
25159 kPa	970.1
25199 kPa	970.2
25232 kPa	970.1
25272 kPa	970.2
25310 kPa	970.3
25343 kPa	970.2
25382 kPa	970.2
25416 kPa	970.2
25457 kPa	970.3
25491 kPa	970.4
25532 kPa	970.3
25575 kPa	970.3
25611 kPa	970.5
25653 kPa	970.3
25689 kPa	970.7
25726 kPa	970.3
25768 kPa	970.5
25804 kPa	970.5
25845 kPa	970.5
25882 kPa	970.6
25929 kPa	970.6
25969 kPa	970.5
26006 kPa	970.5
26051 kPa	970.7
26084 kPa	970.7
26119 kPa	970.7
26164 kPa	970.7
26203 kPa	970.7
26241 kPa	970.8
26285 kPa	970.8
26318 kPa	970.7
26384 kPa	970.8
26413 kPa	970.8
26446 kPa	970.8
26474 kPa	970.9
26520 kPa	970.9
26558 kPa	971
26597 kPa	971
26642 kPa	970.9
26681 kPa	971.1
26720 kPa	971
26767 kPa	971.1
26806 kPa	971.1
26846 kPa	971.1
26893 kPa	971.1
26934 kPa	971.2
26974 kPa	971
27015 kPa	971.2
27064 kPa	971.2
27104 kPa	971.2
27153 kPa	971.2
27193 kPa	971.2
27234 kPa	971.3
27275 kPa	971.4
27317 kPa	971.3
27366 kPa	971.3
27407 kPa	971.4
27450 kPa	971.4
27500 kPa	971.4
27543 kPa	971.4
27585 kPa	971.6
27636 kPa	971.4
27678 kPa	971.4
27720 kPa	971.6
27763 kPa	971.5
27814 kPa	971.6
27856 kPa	971.5
27907 kPa	971.5
27950 kPa	971.7
27993 kPa	971.7
28045 kPa	971.7
28089 kPa	971.7
28134 kPa	971.8
28178 kPa	971.9
28230 kPa	971.9
28273 kPa	971.8
28325 kPa	972
28369 kPa	971.9
